Laboratory results reported in PubChem BioAssay (NCI).
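The concentration for 50% growth inhibition is given as GI50. TGI: total growth inhibition.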

Assays:
Assay in all cases: NCI tumour cell line growth inhibition, 384-well format
786-0 renal = system: 786-0 renal
A498 renal = system: A498 renal
A549 NSCLC = system: A549 NSCLC
ACHN renal = system: ACHN renal
BT-549 breast = system: BT-549 breast
CAKI-1 renal = system: CAKI-1 renal
CCRF-CEM leukemia = system: CCRF-CEM leukemia
COLO 205 colon = system: COLO 205 colon
DU-145 prostate = system: DU-145 prostate
EKVX NSCLC = system: EKVX NSCLC
HCC-2998 colon = system: HCC-2998 colon
HCT-116 colon = system: HCT-116 colon
HCT-15 colon = system: HCT-15 colon
HL-60(TB) leukemia = system: HL-60(TB) leukemia
HOP-62 NSCLC = system: HOP-62 NSCLC
HOP-92 NSCLC = system: HOP-92 NSCLC
HS 578T breast = system: HS 578T breast
HT29 colon = system: HT29 colon
IGROV1 ovarian = system: IGROV1 ovarian
KM12 colon = system: KM12 colon
LOX IMVI melanoma = system: LOX IMVI melanoma
M14 melanoma = system: M14 melanoma
MALME-3M melanoma = system: MALME-3M melanoma
MCF7 breast = system: MCF7 breast
MDA-MB-231 breast = system: MDA-MB-231 breast
MDA-MB-435 melanoma = system: MDA-MB-435 melanoma
MDA-MB-468 breast = system: MDA-MB-468 breast
MOLT-4 leukemia = system: MOLT-4 leukemia
NCI-H226 lung = system: NCI-H226 lung
NCI-H23 lung = system: NCI-H23 lung
NCI-H322M lung = system: NCI-H322M lung
NCI-H460 NSCLC = system: NCI-H460 NSCLC
NCI-H522 lung = system: NCI-H522 lung
NCI/ADR-RES ovarian = system: NCI/ADR-RES ovarian
OVCAR-3 ovarian = system: OVCAR-3 ovarian
OVCAR-4 ovarian = system: OVCAR-4 ovarian
OVCAR-5 ovarian = system: OVCAR-5 ovarian
OVCAR-8 ovarian = system: OVCAR-8 ovarian
PC-3 prostate = system: PC-3 prostate
RPMI-8226 leukemia = system: RPMI-8226 leukemia
RXF 393 renal = system: RXF 393 renal
SF-268 CNS = system: SF-268 CNS
SF-295 CNS = system: SF-295 CNS
SF-539 CNS = system: SF-539 CNS
SK-MEL-28 melanoma = system: SK-MEL-28 melanoma
SK-MEL-5 melanoma = system: SK-MEL-5 melanoma
SK-OV-3 ovarian = system: SK-OV-3 ovarian
SN12C renal = system: SN12C renal
SNB-19 CNS = system: SNB-19 CNS
SNB-75 CNS = system: SNB-75 CNS
SR leukemia = system: SR leukemia
SW-620 colon = system: SW-620 colon
T-47D breast = system: T-47D breast
TK-10 renal = system: TK-10 renal
U251 glioblastoma = system: U251 glioblastoma
UACC-257 melanoma = system: UACC-257 melanoma
UACC-62 melanoma = system: UACC-62 melanoma
UO-31 renal = system: UO-31 renal

With `CNC(=O)c1ccc(N2C(=S)N(c3cnc(C#N)c(C(F)(F)F)c3)C(=O)C23CCC3)cc1F` the GI50 (786-0 renal) was over 100 µM, the TGI (786-0 renal) was over 100 µM and the GI50 (A498 renal) was over 100 µM. It also gave a TGI (A498 renal) of over 100 µM, a GI50 (A549 NSCLC) of over 100 µM and a TGI (A549 NSCLC) of over 100 µM. The GI50 (ACHN renal) was over 100 µM, the TGI (ACHN renal) was over 100 µM and the GI50 (BT-549 breast) was over 100 µM. It also gave a TGI (BT-549 breast) of over 100 µM, a GI50 (CAKI-1 renal) of over 100 µM and a TGI (CAKI-1 renal) of over 100 µM. For the same compound, the GI50 (CCRF-CEM leukemia) was over 100 µM, the TGI (CCRF-CEM leukemia) was over 100 µM and the GI50 (COLO 205 colon) was over 100 µM. For the same compound, the TGI (COLO 205 colon) was over 100 µM, the GI50 (DU-145 prostate) was over 100 µM and the TGI (DU-145 prostate) was over 100 µM. The GI50 (EKVX NSCLC) was over 100 µM, the TGI (EKVX NSCLC) was over 100 µM and the GI50 (HCC-2998 colon) was over 100 µM. The TGI (HCC-2998 colon) was over 100 µM, the GI50 (HCT-116 colon) was over 100 µM and the TGI (HCT-116 colon) was over 100 µM. For the same compound, the GI50 (HCT-15 colon) was over 100 µM, the TGI (HCT-15 colon) was over 100 µM and the GI50 (HL-60(TB) leukemia) was 55.6 µM. It also gave a TGI (HL-60(TB) leukemia) of over 100 µM, a GI50 (HOP-62 NSCLC) of over 100 µM and a TGI (HOP-62 NSCLC) of over 100 µM. It also gave a GI50 (HOP-92 NSCLC) of over 100 µM, a TGI (HOP-92 NSCLC) of over 100 µM and a GI50 (HS 578T breast) of over 100 µM. For the same compound, the TGI (HS 578T breast) was over 100 µM, the GI50 (HT29 colon) was over 100 µM and the TGI (HT29 colon) was over 100 µM. The GI50 (IGROV1 ovarian) was over 100 µM, the TGI (IGROV1 ovarian) was over 100 µM and the GI50 (KM12 colon) was over 100 µM. The TGI (KM12 colon) was over 100 µM, the GI50 (LOX IMVI melanoma) was over 100 µM and the TGI (LOX IMVI melanoma) was over 100 µM. For the same compound, the GI50 (M14 melanoma) was over 100 µM, the TGI (M14 melanoma) was over 100 µM and the GI50 (MALME-3M melanoma) was over 100 µM. For the same compound, the TGI (MALME-3M melanoma) was over 100 µM, the GI50 (MCF7 breast) was over 100 µM and the TGI (MCF7 breast) was over 100 µM. For the same compound, the GI50 (MDA-MB-231 breast) was over 100 µM, the TGI (MDA-MB-231 breast) was over 100 µM and the GI50 (MDA-MB-435 melanoma) was over 100 µM. The TGI (MDA-MB-435 melanoma) was over 100 µM, the GI50 (MDA-MB-468 breast) was 55.5 µM and the TGI (MDA-MB-468 breast) was over 100 µM. It also gave a GI50 (MOLT-4 leukemia) of 36.4 µM, a TGI (MOLT-4 leukemia) of over 100 µM and a GI50 (NCI-H226 lung) of over 95.1 µM. The TGI (NCI-H226 lung) was over 100 µM, the GI50 (NCI-H23 lung) was over 100 µM and the TGI (NCI-H23 lung) was over 100 µM. It also gave a GI50 (NCI-H322M lung) of over 100 µM, a TGI (NCI-H322M lung) of over 100 µM and a GI50 (NCI-H460 NSCLC) of over 100 µM. For the same compound, the TGI (NCI-H460 NSCLC) was over 100 µM, the GI50 (NCI-H522 lung) was over 100 µM and the TGI (NCI-H522 lung) was over 100 µM. The GI50 (NCI/ADR-RES ovarian) was over 100 µM, the TGI (NCI/ADR-RES ovarian) was over 100 µM and the GI50 (OVCAR-3 ovarian) was over 100 µM. For the same compound, the TGI (OVCAR-3 ovarian) was over 100 µM, the GI50 (OVCAR-4 ovarian) was 90.4 µM and the TGI (OVCAR-4 ovarian) was over 100 µM. For the same compound, the GI50 (OVCAR-5 ovarian) was over 100 µM, the TGI (OVCAR-5 ovarian) was over 100 µM and the GI50 (OVCAR-8 ovarian) was over 100 µM. The TGI (OVCAR-8 ovarian) was over 100 µM, the GI50 (PC-3 prostate) was over 100 µM and the TGI (PC-3 prostate) was over 100 µM. It also gave a GI50 (RPMI-8226 leukemia) of 69.1 µM, a TGI (RPMI-8226 leukemia) of over 100 µM and a GI50 (RXF 393 renal) of over 62.4 µM. It also gave a TGI (RXF 393 renal) of over 100 µM, a GI50 (SF-268 CNS) of over 100 µM and a TGI (SF-268 CNS) of over 100 µM. The GI50 (SF-295 CNS) was over 100 µM, the TGI (SF-295 CNS) was over 100 µM and the GI50 (SF-539 CNS) was over 100 µM. For the same compound, the TGI (SF-539 CNS) was over 100 µM, the GI50 (SK-MEL-28 melanoma) was over 100 µM and the TGI (SK-MEL-28 melanoma) was over 100 µM. The GI50 (SK-MEL-5 melanoma) was over 100 µM, the TGI (SK-MEL-5 melanoma) was over 100 µM and the GI50 (SK-OV-3 ovarian) was over 100 µM. The TGI (SK-OV-3 ovarian) was over 100 µM, the GI50 (SN12C renal) was over 100 µM and the TGI (SN12C renal) was over 100 µM. The GI50 (SNB-19 CNS) was over 100 µM, the TGI (SNB-19 CNS) was over 100 µM and the GI50 (SNB-75 CNS) was over 100 µM. For the same compound, the TGI (SNB-75 CNS) was over 100 µM, the GI50 (SR leukemia) was 29 µM and the TGI (SR leukemia) was 100 µM. It also gave a GI50 (SW-620 colon) of over 100 µM, a TGI (SW-620 colon) of over 100 µM and a GI50 (T-47D breast) of over 72.4 µM. The TGI (T-47D breast) was over 100 µM, the GI50 (TK-10 renal) was over 100 µM and the TGI (TK-10 renal) was over 100 µM. For the same compound, the GI50 (U251 glioblastoma) was over 100 µM, the TGI (U251 glioblastoma) was over 100 µM and the GI50 (UACC-257 melanoma) was over 100 µM. The TGI (UACC-257 melanoma) was over 100 µM, the GI50 (UACC-62 melanoma) was over 100 µM and the TGI (UACC-62 melanoma) was over 100 µM. It also gave a GI50 (UO-31 renal) of over 100 µM and a TGI (UO-31 renal) of over 100 µM.
